{"source": "patent US12318361B2", "about": "“Methods for treating cardiovascular diseases” (Olatec Therapeutics LLC, priority 2017, dated 2025)", "key": {"[1]": {"system": "adult CD1 male mice, acute myocardial infarction", "assay": "Acute myocardial infarction (30 min ischemia, 24 h reperfusion), infarct sparing effect, Example 8", "format": "in vivo", "conditions": "60 mg/kg IP immediately after reperfusion, vs vehicle", "method": "An acute myocardial infarction in adult CD1 male mice was induced by performing a transient surgical ligation of the left coronary artery for 30 minutes followed by reperfusion for 24 hours: 3 mice received OLT1177™ (60 mg/kg) given intraperitoneally immediately after reperfusion and 8 mice received an equal volume of vehicle (NaCl 0.9%). After 24 hours, left ventricular fractional shortening, a surrogate for cardiac systolic function, was measured, using transthoracic echocardiography. After the echocardiogram, the mice were prepared for infarct size measurement using the Triphenyl-Tetrazolium-Chloride (TTC) and Evans Blue technique and then sacrificed: the area of the heart considered not ischemia (non-risk area) appeared blue, the area of the heart that was at risk but viable appeared red, the infarct myocardium appeared pale-white. The left panel of FIG. 6 depicts the TTC/Evans Blue staining of one mouse treated with vehicle and one with OLT1177™: it is apparent that the area of infarct is much larger in the vehicle."}, "[2]": {"system": "IL-1β, IL-6 and IL-1α in hearts of mice", "assay": "Cytokine levels in heart homogenates after in vivo lipopolysaccharide challenge", "parameters": "species or system C57BL/6J mice", "conditions": "200 mg/kg IP every 12 h for 5 doses; LPS 5 mg/kg IP, 2 h; vs saline, P<0.05", "method": "C57BL/6J mice male mice, 22-26 grams (Jackson Laboratories, Bar Harbor, ME) were treated with 200 mg/kg dapansutrile (OLT1177™) in 200 μl of saline or the matching volume of vehicle (saline) intraperitoneally (IP) every 12 hours for 5 doses. One hour after the last dose or saline, the animals were injected IP with 200 μl of lipopolysaccharide (LPS, E. coli, 055: B5, Sigma-Aldrich) at 5 mg/kg and sacrificed after 2 h. Cytokines were measured in hearts homogenates. Tissue homogenates were lysed using RIPA buffer (Sigma-Aldrich) containing a mixture of protease inhibitors (Roche, Indianapolis, IN), centrifuged at 13,000g for 20 minutes at 4° C., and the supernatants were assayed for cytokine levels of IL-1β, IL-6 and IL-1α. The cytokine concentrations were corrected for total protein content.\nThe dose of LPS that was used in the study covers ischemic inflammation, vascular inflammation and cell-mediated inflammation."}, "[3]": {"system": "mice, intra-articular zymosan arthritis model", "assay": "Zymosan-induced knee joint arthritis in mice", "format": "in vivo", "conditions": "600 mg/kg oral gavage, 5 doses, 24 h after zymosan", "method": "Zymosan injected directly into the knee joint of mice elicits an inflammatory response and is used as a model of arthritis (Verschure et al, Ann. Rheum Dis. 53:455-460, 1994). Endpoints measured in this model include knee joint swelling score, cytokine levels in the synovial tissue and microscopic pathology of the knee.\nArthritis was induced in mice by intra-articular injection of zymosan (180 μg) into the knee joint (at time zero) of both knees in each mouse. Mice were treated by oral gavage with vehicle (saline, n=5) or dapansutrile (drug) in vehicle (600 mg/kg, n=4) at times −25 hr, −13 hr, and −1 hr. After zymosan injection at time zero, mice were further treated with vehicle or dapansutrile (600 mg/kg) at times +11 hr and +23 hr. Mice were terminated 24 hours after the zymosan injection.\nMacroscopic joint swelling was assessed on all knees after the skin is removed using a scoring system ranging from 0 to 3, with 0 being no swelling and 3 being severe swelling.\nIn addition, synovial membrane was taken from one knee per mouse and the cells were lysed for measurement of mouse IL-1β, using an ELISA kit from R&D Systems, Inc., following manufacturer's protocols. The results are shown as mean ±standard error of mean and statistical evaluation is performed (see FIG. 2)."}, "caspase-1": {"system": "caspase-1", "assay": "Caspase-1 activity in J774A.1 cell lysates after LPS and nigericin stimulation", "format": "cell-based, murine", "conditions": "50 μM, J774A.1 cells, n=3, p<0.05", "method": "J774A.1 murine macrophages cells were stimulated with 1 μg/ml lipopolysaccharide (LPS) for 4 hours and either nigericin (NIG, 10 μM) or ATP (5 mM) was added for 1 hour. OLT1177™ was added to the cells either 30 minutes following LPS stimulation or at the same time as ATP.\n1 cell lysates following LPS and NIG stimulation in presence of 50 μM dapansutrile (OLT1177™). Caspase-1 activity is expressed as percent change of the mean value of each assay (n=3) with LPS/NIG set at 100%. Caspase-1 activity was reduced by 35% (p<0.05) in an enzymatic assay of cell lysate from stimulated cells in the presence of dapansutrile, comparing with control."}, "[4]": {"system": "IL-18 release from human monocytes-derived macrophages", "assay": "Suppression of IL-18 release from human monocytes-derived macrophages (LPS priming, nigericin release, ELISA)", "format": "cell-based", "method": "Peripheral blood mononuclear cells (PBMCs) were isolated from blood of 6 healthy human donors and differenciates in macrophages using GM-CSF (5 ng/ml) for 5 days. They were stimulated with 1 μg/mL with lipopolysaccharide (LPS, priming phase) at time zero. At 30 minutes, they were incubated with different concentrations of dapansutrile (OLT1177™) from 0.001-100 μM. At 4 hours, 10 μM of nigericin (NIG, release phase) was added. At the end of an 5 hour incubation period, the supernatant was harvested and assayed for IL-1β or IL-18 using respective ELISA kits following manafacturer's protocols."}}, "data": [{"compound": "CS(=O)(=O)CCC#N", "note": "[OLT1177™, 3-methanesulfonyl-propionitrile]", "values": [{"measurement": "infarct size as percentage of the area-at-risk", "setting": "[1]", "result": "significantly smaller"}, {"measurement": "left ventricular systolic function (fractional shortening)", "setting": "[1]", "result": "preservation"}, {"measurement": "cytokine level of IL-1α in hearts", "setting": "[2]", "result": "reduced"}, {"measurement": "cytokine level of IL-1β in hearts", "setting": "[2]", "result": "reduced"}, {"measurement": "cytokine level of IL-6 in hearts", "setting": "[2]", "result": "reduced"}, {"measurement": "level of IL-1β in synovial membrane", "setting": "[3]; vs untreated mice", "result": "significantly reduced"}, {"measurement": "macroscopic joint swelling (score 0 to 3)", "setting": "[3]; vs vehicle-treated mice", "result": "significant reduction"}, {"measurement": "reduction of caspase-1 activity in cell lysate (LPS/NIG set at 100%)", "setting": "caspase-1", "result": 35, "unit": "%"}, {"measurement": "concentration of maximum suppression effects on IL-18 release", "setting": "[4]; HMDM, 1 μg/mL LPS then 10 μM nigericin, 0.001-100 μM tested", "result": "10 to 50", "unit": "µM"}, {"measurement": "release of IL-18 from stimulated monocytes-derived macrophages", "setting": "[4]; LPS/nigericin, compared to control", "result": "suppresses"}]}]}
